Results published in PMC5697638, “Identification of a Potent Phosphoinositide 3‐Kinase Pan Inhibitor Displaying a Strategic Carboxylic Acid Group and Development of Its Prodrugs” (Chemmedchem, 2017).

Assays:
PI3Kδ = target: T1, PI3Kδ (Homo sapiens, UniProt O00329); assay: Lineweaver–Burk plot, inhibition mode against PI3Kδ; format: biochemical; conditions: ATP 5-100 μM; 37 at 5, 10, 20 nM
T1 construct: purchased ProQinase, Germany 1162–1165‐1
Procedure: Figure 6 Inhibition mode of 37 against PI3Kδ isoform. Lineweaver–Burk plot, 1/v versus 1/[ATP]. The inhibition assay was performed by using varying concentrations of ATP (5, 10, 25, 50, and 100 μM) and fixed concentrations of PI3Kδ recombinant protein (2.4 μg mL^−1) and lipids (1 mg mL^−1 PI/PS lipid micelles mixture) in the presence or absence of different concentrations of 37 (5, 10, and 20 nM).
Lineweaver–Burk plot: The linear phase of the kinetic reaction was defined with 2.4 μg mL^−1 of PI3Kδ in a 20 min reaction time. In the presence of increasing concentrations of 37 (5, 10 and 20 nM), the PI3K lipid kinase activity (for the assay method see “In vitro selection, lipid kinase assay” in the Experimental Section) was assayed at various concentrations of ATP (5, 10, 25, 50, and 100 μM) and in the presence of 0.5 mg mL^−1 lipid micelles (1:1 phosphatidylinositol/phosphatidylserine). A Lineweaver–Burk plot was obtained by plotting 1/v, for which v represents pmol min^−1 of ADP produced in the reaction measured with the ADP‐Glo Kinase Assay kit from Promega (#V9102) versus 1/[ATP] (the inverse of the ATP concentration). The minus‐enzyme control was obtained by incubating phosphatidylinositol in the absence of PI3Kδ.

PC3 cells = assay: cell-cycle analysis, propidium iodide flow cytometry; format: cell-based; conditions: 10 μM, 48 h
Procedure: Cell‐cycle analysis: For DNA content determination, PC3 cells were seeded at 4×10^5 cells per 6 cm dish in triplicate in the presence of DMEM high glucose GlutaMAXTM (Gibco), 10 % fetal bovine serum (Invitrogen) supplemented with 5000 U mL^−1 penicillin–streptomycin (Gibco). The day after seeding, cells were treated for 48 h with 10 μM 64 or DMSO. Subsequently, PC3 cells were detached with 0.1 % trypsin–EDTA (Gibco), fixed in 70 % ethanol overnight at −20 °C, and stained for 40 min at […] with PI solution, containing 0.05 % Triton X‐100, 0.1 mg mL^−1 RNase, and 25 μg mL^−1 propidium iodide. Sample were analyzed for the DNA content by using a FACS‐Calibur flow cytometer (Becton Dickinson Immunocytometry Systems, San Jose, USA). The percentages of cells in the G0/G1, S, and G2 phases were calculated.

T1 sequence (O00329 whole entry): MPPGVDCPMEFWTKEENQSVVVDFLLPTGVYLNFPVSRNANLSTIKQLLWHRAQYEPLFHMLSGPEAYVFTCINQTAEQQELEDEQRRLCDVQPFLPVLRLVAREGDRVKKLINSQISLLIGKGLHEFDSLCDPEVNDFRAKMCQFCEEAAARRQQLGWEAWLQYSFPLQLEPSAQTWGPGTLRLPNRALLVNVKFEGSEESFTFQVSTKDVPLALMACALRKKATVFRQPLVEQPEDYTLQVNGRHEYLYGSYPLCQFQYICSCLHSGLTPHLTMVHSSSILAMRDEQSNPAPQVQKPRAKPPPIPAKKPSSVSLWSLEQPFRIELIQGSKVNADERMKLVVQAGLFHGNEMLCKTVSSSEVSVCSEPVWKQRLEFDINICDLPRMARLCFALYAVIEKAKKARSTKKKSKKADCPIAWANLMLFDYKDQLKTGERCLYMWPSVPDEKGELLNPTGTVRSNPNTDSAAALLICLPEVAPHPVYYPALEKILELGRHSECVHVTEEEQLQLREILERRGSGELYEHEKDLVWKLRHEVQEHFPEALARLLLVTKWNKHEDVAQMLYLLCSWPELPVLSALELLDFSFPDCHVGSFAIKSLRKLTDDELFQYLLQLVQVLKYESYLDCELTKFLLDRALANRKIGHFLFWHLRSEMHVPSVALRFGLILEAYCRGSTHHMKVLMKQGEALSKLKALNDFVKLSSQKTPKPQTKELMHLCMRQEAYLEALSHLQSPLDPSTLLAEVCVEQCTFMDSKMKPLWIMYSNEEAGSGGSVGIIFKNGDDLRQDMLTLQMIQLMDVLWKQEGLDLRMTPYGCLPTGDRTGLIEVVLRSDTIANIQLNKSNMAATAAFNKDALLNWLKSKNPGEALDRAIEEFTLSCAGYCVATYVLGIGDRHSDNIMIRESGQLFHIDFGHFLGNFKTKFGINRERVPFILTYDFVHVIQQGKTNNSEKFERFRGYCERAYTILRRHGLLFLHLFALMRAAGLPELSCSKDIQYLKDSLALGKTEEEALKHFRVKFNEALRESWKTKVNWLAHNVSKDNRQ
T1 sequence (P27986 whole entry partner): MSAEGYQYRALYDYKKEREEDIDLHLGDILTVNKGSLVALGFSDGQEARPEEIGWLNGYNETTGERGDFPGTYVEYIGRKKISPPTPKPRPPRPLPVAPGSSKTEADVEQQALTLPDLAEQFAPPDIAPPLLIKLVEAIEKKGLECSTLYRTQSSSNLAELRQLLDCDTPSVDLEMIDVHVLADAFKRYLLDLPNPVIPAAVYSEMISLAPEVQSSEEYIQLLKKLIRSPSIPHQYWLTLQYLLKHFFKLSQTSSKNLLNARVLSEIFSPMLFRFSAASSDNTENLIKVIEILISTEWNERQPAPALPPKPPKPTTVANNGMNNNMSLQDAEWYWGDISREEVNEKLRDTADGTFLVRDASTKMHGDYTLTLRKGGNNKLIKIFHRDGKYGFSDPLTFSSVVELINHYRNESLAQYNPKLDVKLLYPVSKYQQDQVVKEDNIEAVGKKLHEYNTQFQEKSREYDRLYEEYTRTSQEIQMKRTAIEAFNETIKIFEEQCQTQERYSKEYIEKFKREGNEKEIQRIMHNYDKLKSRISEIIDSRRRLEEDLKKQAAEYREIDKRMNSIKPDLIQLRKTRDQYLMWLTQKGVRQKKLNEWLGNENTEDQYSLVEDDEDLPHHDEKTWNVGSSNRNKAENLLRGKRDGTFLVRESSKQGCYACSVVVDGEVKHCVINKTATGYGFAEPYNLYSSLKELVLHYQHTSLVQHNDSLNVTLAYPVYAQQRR

Row | Structure (SMILES) | inhibition mode against PI3Kδ (PI3Kδ) | effect on cell cycle (PC3 cells)
1 | O=C(O)c1cccc(Cn2cc(-c3cccc4c(=O)cc(N5CCOCC5)[nH]c34)nn2)c1 [Compound 37, 3‐{[4‐(2‐Morpholino‐4‐oxo‐1,4‐dihydroquinolin‐8‐yl)‐1H‐1,2,3‐triazol‐1‐yl]methyl}benzoic acid] | ATP‐competitive inhibitor | 
2 | COC(=O)c1cccc(Cn2cc(-c3cccc4c(=O)cc(N5CCOCC5)[nH]c34)nn2)c1 [Compound 64, Methyl 3‐{[4‐(2‐morpholino‐4‐oxo‐1,4‐dihydroquinolin‐8‐yl)‐1H‐1,2,3‐triazol‐1‐yl]methyl}benzoate] |  | induce cell‐cycle arrest
